# From patent US4216226A (priority 1977, dated 1980)
# Where a name gives a salt, the structure may show the parent alone. Read-outs that look alike come from different tables or passages of the source.
# Assays:
# [1] = system: Infectious pancrease necrosis virus (IPNV); type: cell-based
# mice = details: mouse, in vivo, ip
# [2] = system: Influenza virus A-O/PR-8 strain; type: cell-based
# in vitro [3] = details: human, hela s3 cells
# [4] = system: Newcastle disease virus (NDV) Miyadera strain; type: cell-based
# in vitro [5] = details: rainbow trout, rtg-2 cells
# Herpes virus = type: cell-based
# [6] = system: Vaccinia virus Lister strain; type: cell-based
# [7] = system: Vesicular stomatitis virus (VSV); type: cell-based
# Influenza virus = type: cell-based
# [8] = system: Influenza virus A0 /PR-8 strain; type: in vivo, mice of the ICR strain; details: intraperitoneal, twice a day for 3 days, mouse lung at 72 hours
# [9] = system: Newcastle disease virus Miyadera strain; type: in vivo, embryonated chick egg; details: for MDT (difference from control): Miyadera strain, 104 hours incubation
# [10] = system: Newcastle disease virus I(1) strain; type: in vivo, embryonated chick egg; details: 104 hours incubation
# [11] = system: Newcastle disease virus Komarov strain; type: in vivo, embryonated chick egg; details: for MDT (difference from control): Komarov strain, 104 hours incubation
# [12] = system: Newcastle disease virus Sato strain; type: in vivo, embryonated chick egg; details: for MDT (difference from control): Sato strain, 104 hours incubation
# [13] = system: IPNV (infectious pancreas necrosis virus); assay: Preventing IPN virus in fish; type: in vivo, rainbow trout; details: 16 ppm water bath 96 hours, 18° C.; for Cumulative number of dying fish: 20 fish
# Method: 40 Young (4-6 cm in body length) rainbow trout were sensitised by immersion for 3 hours under aeration in 7.5 liters of a water bath containing IPNV (infectious pancreas necrosis virus) which was prepared by diluting to a 1000-fold volume a cell stock of IPNV (virus titer: 10^6.301 TCID50 /ml) cultured in RTG-2 cells. Immediately after this sensitisation, the fish were divided into two groups each comprising 20 fish and each group was placed in two glass vessels containing 50 liters of water, respectively. The first group of fish was the treated group, while the second group of fish was the control group (untreated).
# After the first group of fish was placed in the water-containing vessel, L-hydroxyureidomethyl glycine was dissolved in the water to a concentration of 16 ppm. in this vessel, whereupon the fish were treated during 96 hours with the water bath containing the active compound. Thereafter, the active solution of the bath was replaced by fresh water containing no active compound, and the fish were observed daily to count the number of the young fish which fell dead. The active compound was not added to the water in the second vessel containing the second group of fish (control group), although replacement of water was made in the second vessel. In this way, the effect of L-hydroxyureidomethyl glycine in preventing IPNV infection was estimated. All of the tests were conducted in the water at 18° C.
# [14] = system: vaccinia virus Lister strain; type: in vivo, mice of the ICR strain; details: subcutaneous, 4 times first day, twice a day days 2-5, 10th day
# viruses = details: cited from earlier work
# [15] = Vero cell, 37° C., 5-7 days, at MDC, 1/2 or 1/4 MDC, vs control
# [16] = HeLa S3 cell, 37° C., 5-7 days, at MDC, 1/2 or 1/4 MDC, vs control
# [17] = L-929 cell, 37° C., 5-7 days, at MDC, 1/2 or 1/4 MDC, vs control
Structure (SMILES),"Difference of -log TCID50 /ml, IPNV [1]","Difference of -log TCID50 /ml, Influenza virus [2, 15]",MCC (in vitro [3]),"Difference of -log TCID50 /ml, NDV [4, 16]",MCC (in vitro [5]),"Difference of -log TCID50 /ml, VSV [7, 17]",further results
COC(=O)[C@@H](N)Cc1ccc(O)cn1 [L-p-Hydroxypyridylmethyl glycine methylester hydrochloride],3.75,1.00,1000 µg/mL,2.00,1500 µg/mL,–,Acute toxicity LD0 (mice): > 1000 mg/kg
NC(=O)NC[C@H](N)C(=O)O [L-Ureidomethyl glycine hydrochloride],3.75,–,> 1000 µg/mL,> 4.00,4000 µg/mL,0.33,"Difference of -log TCID50 /ml, Herpes virus (Herpes virus): 1.50; Difference of -log TCID50 /ml, Vaccinia virus [6, 16]: 1.17"
CP(=O)(O)CC[C@H](N)C(=O)O [L-Methylphosphinoethyl glycine sodium salt],–,–,> 1000 µg/mL,2.00,4000 µg/mL,–,"Difference of -log TCID50 /ml, Influenza virus (calculated from chick hemagglutination titer) (Influenza virus): > 7.3"
"CP(=O)(O)CC[C@H](N)C(=O)O [L-methylphosphinoethyl glycine, L-Methylphosphinoethyl glycine]",–,–,–,–,–,–,"Per cent of Inhibition (virus multiplication, HA units) ([8]; 50 mg/kg): 67%; MDT (difference from control) ([9]; 250 mg per egg): 2.4; MDT (difference from control) ([9]; 500 mg per egg): > 45.6; MDT (difference from control) ([10]; 250 mg per egg): > 23.2; MDT (difference from control) ([10]; 500 mg per egg): 4.8; MDT (difference from control) ([11]; 250 mg per egg): > 4.8; MDT (difference from control) ([11]; 500 mg per egg): > 27.8; MDT (difference from control) ([12]; 250 mg per egg): > 30.6; MDT (difference from control) ([12]; 500 mg per egg): > 95.6"
"NC(Cc1ccc(F)cc1)C(=O)O (racemic) [DL-p-fluoro-phenyl alanine, reference compound]",0,0,125 µg/mL,1.17,250 µg/mL,1.00,–
NC(=O)NC[C@H](N)C(=O)O [L-Ureidomethyl glycine],–,–,–,–,–,–,"MDT (difference from control) ([9]; 500 mg per egg): 3.2; MDT (difference from control) ([9]; 1,000 mg per egg): -6.4; Δlog MLD ([9]; in vivo): 0; MDT (difference from control) ([10]; 500 mg per egg): > 5.2; MDT (difference from control) ([10]; 1,000 mg per egg): -1.6; MDT (difference from control) ([11]; 500 mg per egg): > 13.8; MDT (difference from control) ([11]; 1,000 mg per egg): > 29.8; MDT (difference from control) ([12]; 500 mg per egg): -6.4; MDT (difference from control) ([12]; 1,000 mg per egg): > 4.6"
N[C@@H](CNC(=O)NO)C(=O)O [L-Hydroxyureidomethyl glycine],4.00,–,> 1000 µg/mL,0.50,4000 µg/mL,–,"Acute toxicity LD0 (mice): > 3000 mg/kg; Per cent of Inhibition (virus multiplication, HA units) ([8]; 100 mg/kg): 65%; Survival rate ([13]; 67 days, control 10%): 95%; Cumulative number of dying fish ([13]; 28 days, control 0): 0; Cumulative number of dying fish ([13]; 46 days, control 2): 0; Cumulative number of dying fish ([13]; 55 days, control 13): 0; Cumulative number of dying fish ([13]; 67 days, control 18): 1; Difference of -log TCID50 /ml, Vaccinia virus [6, 16]: 3.50; Percent of inhibition of pock ([14]; 25 mg/kg): 33.7%; Percent of inhibition of pock ([14]; 50 mg/kg): 48.0%"
N[C@@H](Cc1ccc(O)cn1)C(=O)O,3.75,1.00,500 µg/mL,> 4.00,500 µg/mL,–,"Acute toxicity LD0 (mice): > 1000 mg/kg; Per cent of Inhibition (virus multiplication, HA units) ([8]; 50 mg/kg): 52%; Per cent of Inhibition (virus multiplication, HA units) ([8]; 100 mg/kg): 77%; Difference of -log TCID50 /ml, Herpes virus (Herpes virus): > 2.50; MDT (difference from control) ([9]; 500 mg per egg): -3.1; MDT (difference from control) ([9]; 1,000 mg per egg): 14.8; MDT (difference from control) ([10]; 500 mg per egg): > 80.4; MDT (difference from control) ([10]; 1,000 mg per egg): > 16.8; Difference of -log TCID50 /ml, Vaccinia virus [6, 16]: > 1.97; MDT (difference from control) ([11]; 500 mg per egg): 3.2; MDT (difference from control) ([11]; 1,000 mg per egg): 0; Δlog MLD ([11]; in vivo): 1.0; MDT (difference from control) ([12]; 500 mg per egg): > 12.1; MDT (difference from control) ([12]; 1,000 mg per egg): > 19.2; Δlog MLD ([12]; in vivo): 0.5; Percent of inhibition of pock ([14]; 6.2 mg/kg): 56.9%"
NCC(N)C(=O)O (racemic) [DL-Aminomethyl glycine hydrochloride],–,1.00,> 1000 µg/mL,1.50,3000 µg/mL,0.33,"Difference of -log TCID50 /ml, Herpes virus (Herpes virus): > 2.50; Difference of -log TCID50 /ml, Vaccinia virus [6, 16]: 0.17"
NC(Cc1ccc(O)cn1)C(=O)O (racemic) [DL-p-Hydroxypyridylmethyl glycine],3.50,0.50,> 1000 µg/mL,> 3.00,1000 µg/mL,> 2.83,–
NC(Cc1ccc(F)cc1)C(=O)O (centres unmarked) [p-fluoro-phenyl alanine],–,–,–,–,–,–,antiviral activity (reported) (viruses): exhibits an antiviral activity
"O=C1O[C@H]([C@@H](O)CO)C(O)=C1O [L-Ascorbic acid, reference compound]",–,0,125 µg/mL,0.83,2000 µg/mL,1.00,–
NC[C@H](N)C(=O)O [L-Aminomethyl glycine hydrochloride],–,1.00,> 1000 µg/mL,1.50,4000 µg/mL,0.67,"Difference of -log TCID50 /ml, Herpes virus (Herpes virus): > 2.50; Difference of -log TCID50 /ml, Vaccinia virus [6, 16]: 0.33"
"O=C(O)C1NC2CC21 [L-3,5-Cyclo-2-pyrrolidylcarboxylic acid]",3.50,2.00,> 1000 µg/mL,0.17,1000 µg/mL,–,–
"Cl.NC12CC3CC(CC(C3)C1)C2 [1-Adamantanamine hydrochloride, reference compound]",2.75,> 2.00,250 µg/mL,–,31.2 µg/mL,–,"Per cent of Inhibition (virus multiplication, HA units) ([8]; 100 mg/kg): 76%"
NC(CCP(=O)(O)O)C(=O)O (racemic) [DL-phosphonoethyl glycine],1.30,–,250 µg/mL,–,4000 µg/mL,–,"Difference of -log TCID50 /ml, Influenza virus [2]: 1.00; Difference of -log TCID50 /ml, Herpes virus (Herpes virus; Hep No. 2 cell, 37° C., 5-7 days, at MDC, 1/2 or 1/4 MDC, vs control): 0.50; Difference of -log TCID50 /ml, NDV [4]: 1.50; Difference of -log TCID50 /ml, Vaccinia virus [6]: 1.17; Difference of -log TCID50 /ml, VSV [7]: 0.50"
"NC(=O)NO [Hydroxyurea, reference compound]",–,–,–,–,–,–,Percent of inhibition of pock ([14]; 50 mg/kg): 42.8%
NC(=O)NCC(N)C(=O)O (racemic) [DL-Ureidomethyl glycine],3.50,–,> 1000 µg/mL,1.17,2000 µg/mL,–,–
